# Assay results from article PMC9090415, “Discovery of small molecule inhibitors of Plasmodium falciparum apicoplast DNA polymerase” (Journal of Enzyme Inhibition and Medicinal Chemistry, 2022).
# Biological target: P. falciparum apicoplast DNA polymerase (Pf-apPOL) (Plasmodium falciparum, UniProt Q8ILY1)
# Assay: Fluorescence-based high-throughput DNA polymerase assay (molecular beacon), primary screen and dose-response
# Type: biochemical
# Conditions: for DNA Pol: 90 min, 10 µM; for % inhibition apPOL 180' 2.5 / % inhibition apPOL 180' 5 / % inhibition apPOL 180' 10 / % inhibition apPOL 180' 20 / % inhibition apPOL 180' 40 / % inhibition apPOL 180' 80: read at 180'
# In short: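 Single-point screening used 10 µM compound with 20 nM polymerase, 20 nM hairpin substrate and 6 µM dNTPs for 90 min at 25 °C. Confirmatory titrations (2.5–80 µM) followed fluorescence at three times, and IC50 was derived from a fit including a cooperativity term n.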
# P. falciparum apicoplast DNA polymerase (Pf-apPOL), sequence (Q8ILY1 entry or part of it): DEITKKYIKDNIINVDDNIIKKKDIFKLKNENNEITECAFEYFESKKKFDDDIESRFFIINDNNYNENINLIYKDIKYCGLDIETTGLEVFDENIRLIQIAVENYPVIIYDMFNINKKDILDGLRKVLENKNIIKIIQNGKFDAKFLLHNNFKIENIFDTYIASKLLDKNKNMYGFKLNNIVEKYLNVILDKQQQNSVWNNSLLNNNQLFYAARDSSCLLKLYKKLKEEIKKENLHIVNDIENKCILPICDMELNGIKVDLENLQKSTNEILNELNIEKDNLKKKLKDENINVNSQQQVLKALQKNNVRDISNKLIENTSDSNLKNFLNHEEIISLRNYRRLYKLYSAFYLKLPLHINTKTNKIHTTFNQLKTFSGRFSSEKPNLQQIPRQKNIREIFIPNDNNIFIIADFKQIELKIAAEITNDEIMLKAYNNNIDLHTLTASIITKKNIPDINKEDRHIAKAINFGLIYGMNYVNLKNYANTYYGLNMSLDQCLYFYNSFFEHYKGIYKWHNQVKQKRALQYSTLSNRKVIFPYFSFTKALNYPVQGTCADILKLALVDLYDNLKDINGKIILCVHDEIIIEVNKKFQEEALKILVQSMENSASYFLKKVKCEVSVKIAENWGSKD
structure (smiles),measurement,setting,value
CCCc1ccc(Oc2coc3cc(OC)ccc3c2=O)cc1 [KU0193249],DNA Pol,"186 hits, DNA Pol (screen value), unit not given",73
same,DNA Pol,"'DNA Pol' (screen value), unit not given",73
same,% inhibition Apo pol 10' 2.5,"DRC-1, read at 10', concentration 2.5",7.919%
same,% inhibition Apo pol 10' 5,"DRC-1, read at 10', concentration 5",6.719%
same,% inhibition Apo pol 10' 10,"DRC-1, read at 10', concentration 10",11.6444%
same,% inhibition Apo pol 10' 20,"DRC-1, read at 10', concentration 20",12.8685%
same,% inhibition Apo pol 10' 40,"DRC-1, read at 10', concentration 40",28.2048%
same,% inhibition Apo pol 10' 80,"DRC-1, read at 10', concentration 80",56.0479%
same,% inhibition Apol 90' 2.5,"DRC-1, read at 90', concentration 2.5",14.2398%
same,% inhibition Apol 90' 5,"DRC-1, read at 90', concentration 5",11.6391%
same,% inhibition Apol 90' 10,"DRC-1, read at 90', concentration 10",17.4321%
same,% inhibition Apol 90' 20,"DRC-1, read at 90', concentration 20",14.1885%
same,% inhibition Apol 90' 40,"DRC-1, read at 90', concentration 40",28.8567%
same,% inhibition Apol 90' 80,"DRC-1, read at 90', concentration 80",54.3218%
same,% inhibition apPOL 180' 2.5,"DRC-1, concentration 2.5",21.2124%
same,% inhibition apPOL 180' 5,"DRC-1, concentration 5",19.9497%
same,% inhibition apPOL 180' 10,"DRC-1, concentration 10",25.9143%
same,% inhibition apPOL 180' 20,"DRC-1, concentration 20",21.3211%
same,% inhibition apPOL 180' 40,"DRC-1, concentration 40",35.4665%
same,% inhibition apPOL 180' 80,"DRC-1, concentration 80",56.5719%
same,% inhibition Apo pol 5',"DRC-2, concentration 2.5",8%
same,% inhibition Apo pol 5',"DRC-2, concentration 5",12%
same,% inhibition Apo pol 5',"DRC-2, concentration 20",17%
same,% inhibition Apo pol 5',"DRC-2, concentration 40",20%
same,% inhibition Apol 40',"DRC-2, concentration 10",17%
same,% inhibition Apol 40',"DRC-2, concentration 20",20%
same,% inhibition Apol 40',"DRC-2, concentration 40",25%
same,% inhibition ApPOL 90',"DRC-2, concentration 10",17%
same,% inhibition ApPOL 90',"DRC-2, concentration 20",22%
same,% inhibition ApPOL 90',"DRC-2, concentration 40",25%
same,% inhibition apPOL 180',"DRC-2, concentration 5",8%
same,% inhibition apPOL 180',"DRC-2, concentration 10",12%
same,% inhibition apPOL 180',"DRC-2, concentration 40",22%
same,% inhibition Apo pol 5' 2.5,"DRC-2, read at 5', concentration 2.5",8%
same,% inhibition Apo pol 5' 5,"DRC-2, read at 5', concentration 5",12%
same,% inhibition Apo pol 5' 10,"DRC-2, read at 5', concentration 10",13%
same,% inhibition Apo pol 5' 20,"DRC-2, read at 5', concentration 20",17%
same,% inhibition Apo pol 5' 40,"DRC-2, read at 5', concentration 40",20%
same,% inhibition Apo pol 5' 80,"DRC-2, read at 5', concentration 80",36%
same,% inhibition Apol 40' 2.5,"DRC-2, read at 40', concentration 2.5",6.51%
same,% inhibition Apol 40' 5,"DRC-2, read at 40', concentration 5",15%
same,% inhibition Apol 40' 10,"DRC-2, read at 40', concentration 10",17%
same,% inhibition Apol 40' 20,"DRC-2, read at 40', concentration 20",20%
same,% inhibition Apol 40' 40,"DRC-2, read at 40', concentration 40",25%
same,% inhibition Apol 40' 80,"DRC-2, read at 40', concentration 80",47%
same,% inhibition ApPOL 90' 2.5,"DRC-2, read at 90', concentration 2.5",4.24%
same,% inhibition ApPOL 90' 5,"DRC-2, read at 90', concentration 5",14%
same,% inhibition ApPOL 90' 10,"DRC-2, read at 90', concentration 10",17%
same,% inhibition ApPOL 90' 20,"DRC-2, read at 90', concentration 20",22%
same,% inhibition ApPOL 90' 40,"DRC-2, read at 90', concentration 40",25%
same,% inhibition ApPOL 90' 80,"DRC-2, read at 90', concentration 80",51%
same,% inhibition apPOL 180' 2.5,"DRC-2, concentration 2.5",-0.201%
same,% inhibition apPOL 180' 5,"DRC-2, concentration 5",8%
same,% inhibition apPOL 180' 10,"DRC-2, concentration 10",12%
same,% inhibition apPOL 180' 20,"DRC-2, concentration 20",18%
same,% inhibition apPOL 180' 40,"DRC-2, concentration 40",22%
same,% inhibition apPOL 180' 80,"DRC-2, concentration 80",52%
CN(C)S(=O)(=O)Oc1ccc(-c2noc(-c3ccc(Oc4cc(Cl)cc(Cl)c4)o3)n2)cc1 [KU0263859],DNA Pol,"""DNA Pol"" of the 186 hits list (screen value)",81
same,% inhibition Apo pol 10',"DRC-1, concentration 2.5",3.819%
same,% inhibition Apo pol 10',"DRC-1, concentration 5",17.153%
same,% inhibition Apo pol 10',"DRC-1, concentration 10",39.7031%
same,% inhibition Apo pol 10',"DRC-1, concentration 20",66.3992%
same,% inhibition Apo pol 10',"DRC-1, concentration 40",79.6706%
same,% inhibition Apo pol 10',"DRC-1, concentration 80",81.4369%
same,% inhibition Apol 90',"DRC-1, concentration 2.5",1.99%
same,% inhibition Apol 90',"DRC-1, concentration 5",7.942%
same,% inhibition Apol 90',"DRC-1, concentration 10",26.2984%
same,% inhibition Apol 90',"DRC-1, concentration 20",55.9318%
same,% inhibition Apol 90',"DRC-1, concentration 40",71.2326%
same,% inhibition Apol 90',"DRC-1, concentration 80",82.3525%
same,% inhibition apPOL 180',"DRC-1, concentration 2.5",0.6453%
same,% inhibition apPOL 180',"DRC-1, concentration 5",1.378%
same,% inhibition apPOL 180',"DRC-1, concentration 10",13.3092%
same,% inhibition apPOL 180',"DRC-1, concentration 20",44.3234%
same,% inhibition apPOL 180',"DRC-1, concentration 40",58.5688%
same,% inhibition apPOL 180',"DRC-1, concentration 80",76.7438%
same,% inhibition Apo pol 5',"DRC-2, concentration 2.5",2.6%
same,% inhibition Apo pol 5',"DRC-2, concentration 5",18%
same,% inhibition Apo pol 5',"DRC-2, concentration 10",34%
same,% inhibition Apo pol 5',"DRC-2, concentration 20",47%
same,% inhibition Apo pol 5',"DRC-2, concentration 40",47%
same,% inhibition Apo pol 5',"DRC-2, concentration 80",46%
same,% inhibition Apol 40',"DRC-2, concentration 2.5",3%
same,% inhibition Apol 40',"DRC-2, concentration 5",16%
same,% inhibition Apol 40',"DRC-2, concentration 10",36%
same,% inhibition Apol 40',"DRC-2, concentration 20",57%
same,% inhibition Apol 40',"DRC-2, concentration 40",65%
same,% inhibition Apol 40',"DRC-2, concentration 80",68%
same,% inhibition ApPOL 90',"DRC-2, concentration 2.5",0.164%
same,% inhibition ApPOL 90',"DRC-2, concentration 5",12%
same,% inhibition ApPOL 90',"DRC-2, concentration 10",32%
same,% inhibition ApPOL 90',"DRC-2, concentration 20",56%
same,% inhibition ApPOL 90',"DRC-2, concentration 40",67%
same,% inhibition ApPOL 90',"DRC-2, concentration 80",73%
same,% inhibition apPOL 180',"DRC-2, concentration 2.5",-5.61%
same,% inhibition apPOL 180',"DRC-2, concentration 5",5.64%
same,% inhibition apPOL 180',"DRC-2, concentration 10",20%
same,% inhibition apPOL 180',"DRC-2, concentration 20",47%
same,% inhibition apPOL 180',"DRC-2, concentration 40",65%
same,% inhibition apPOL 180',"DRC-2, concentration 80",76%
same,DNA Pol,"primary screen value, DNA Pol",81
